The target of the experiment is mGluR7 (Homo sapiens, UniProt Q14831). The experiment is described as follows: cAMP CRE-luciferase reporter gene assay (Steady Glo) in CHO-CRE-luc cells stably expressing human mGluR7. The format is cell-based. Also noted: expressed in transfected cells. The conditions noted are these: reduction of forskolin stimulated cAMP (luminescence); CHO CRE-luc human mGluR7; read-out: EC50. The method, then: Compound activities were determined in CHO-CRE-luc cells stably expressing hu/mo mGluR7, using a cAMP reporter gene assay (Steady Glo, Promega). Selectivity was assessed in stable CHO-mGluR4 cells (DiscoverX) and CHO-mGluR8 transients using an HTRF cAMP assay (Cisbio).
The ability of the test compounds to activate mGluR7 was determined by their ability to reduce forskolin stimulated cAMP production. Compounds were assessed in a CRE-directed luciferase reporter gene assay, using a stable CHO cell line expressing the CRE-luc reporter and human mGluR7 genes. In this cell line, production of cAMP stimulated the transcription of the luciferase gene and luciferase activity was then measured in a luminescent enzyme assay (Steady Glo assay; Promega E2550). Activation of mGluR7 decreased the forskolin stimulated luminescence signal.
The day prior to the assay, compounds were serially diluted in DMSO (100× final assay concentration (FAC)), in 384-well plates which were then stored in the dark at room temperature (RT) until use. Cells were seeded at 12.5 k/well in white, clear bottom 384-well plates (Corning 3707) and left for one hour at RT followed by an overnight incubation (37° C.). The following day, the DMSO compound plate was diluted 1:20 (5×FAC) in Opti-MEM I (Life Technologies 11058021). The growth media was removed from the cell plate and replaced with 15 μl Opti-MEM I, followed by a 5 μl addition from the 5× compound plate and a fifteen minute incubation (37° C.). Forskolin (Sigma F3917) was then added to the wells (5 μl of 2.5 μM) and the plate was incubated for five hours (37° C.). During this incubation, the Steady Glo Substrate reagent was warmed to 37° C. Aliquots (11 ml; stored at −20° C.) of this reagent were prepared by dissolving the contents of 1 vial of lyophilised substrate in 100 ml Steady-Glo buffer. A 25 μl addition of the substrate was made to all wells and the plate was incubated for thirty minutes at RT, on a plate shaker (300 rpm; in the dark). Luminescence was then measured using the EnVision Multilabel Reader (Perkin Elmer).
Compound activity was examined using a 10-point, half log concentration-response range and each concentration was tested in duplicate wells. Luminescence values were normalised to ‘maximum’ (forskolin alone) and ‘minimum’ (forskolin in the presence of tool mGluR7 agonist) controls.
Background: In a reporter assay the amount or activity of a reporter protein is the signal.

Sequence of mGluR7 (Q14831 35-915): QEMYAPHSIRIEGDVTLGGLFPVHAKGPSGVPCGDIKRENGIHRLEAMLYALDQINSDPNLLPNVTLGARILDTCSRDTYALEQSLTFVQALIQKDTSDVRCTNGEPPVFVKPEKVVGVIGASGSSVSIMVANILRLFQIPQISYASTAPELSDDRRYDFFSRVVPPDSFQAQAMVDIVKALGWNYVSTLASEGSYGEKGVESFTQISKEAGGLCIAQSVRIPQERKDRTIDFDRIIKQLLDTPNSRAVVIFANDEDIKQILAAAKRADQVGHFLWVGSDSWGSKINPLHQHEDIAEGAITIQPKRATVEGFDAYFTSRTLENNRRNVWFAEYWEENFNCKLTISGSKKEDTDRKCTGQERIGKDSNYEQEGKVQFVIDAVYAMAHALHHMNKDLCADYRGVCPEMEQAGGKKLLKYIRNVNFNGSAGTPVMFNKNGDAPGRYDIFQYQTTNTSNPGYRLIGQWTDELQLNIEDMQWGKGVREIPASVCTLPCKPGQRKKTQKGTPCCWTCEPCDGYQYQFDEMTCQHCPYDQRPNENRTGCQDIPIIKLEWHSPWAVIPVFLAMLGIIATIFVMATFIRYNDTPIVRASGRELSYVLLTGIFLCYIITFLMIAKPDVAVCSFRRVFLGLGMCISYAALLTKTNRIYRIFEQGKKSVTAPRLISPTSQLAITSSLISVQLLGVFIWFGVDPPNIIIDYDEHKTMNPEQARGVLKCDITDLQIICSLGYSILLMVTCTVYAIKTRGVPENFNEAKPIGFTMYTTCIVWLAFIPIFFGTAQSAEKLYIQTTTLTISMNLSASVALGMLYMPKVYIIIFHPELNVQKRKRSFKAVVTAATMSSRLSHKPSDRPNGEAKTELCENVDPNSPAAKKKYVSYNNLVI

For `C[C@H](C(=O)NC1COc2ccccc2C1S(C)(=O)=O)c1ccc(Cl)cc1` (single isomer, unassigned) [Example 21], the EC50 came out at 33 nM.
To `CO[C@@H]1c2ccccc2OC[C@H]1NC(=O)C(Oc1ccnc(C)n1)c1ccc(F)cc1F` (relative stereo) [Example 31, 2-(2,4-difluorophenyl)-N-((trans)-4-methoxy-3,4-dihydro-2H-1-benzopyran-3-yl)-2-[(2-methylpyrimidin-4-yl)oxy]acetamide] belongs 54 nM.
To `COC1c2ccccc2OCC1NC(=O)[C@@H]1c2ccccc2CC(=O)N1CC1CC1` (stereo in doubt) [Example 15, (1S)-2-(cyclopropylmethyl)-N-((trans)-4-methoxy-3,4-dihydro-2H-1-benzopyran-3-yl)-3-oxo-1,2,3,4-tetrahydroisoquinoline-1-carboxamide] belongs 14 nM; to `CO[C@@H]1c2ccccc2OC[C@H]1NC(=O)C1c2ccccc2CC(=O)N1Cc1ccccn1` (relative stereo) [Example 29, N-((trans)-4-methoxy-3,4-dihydro-2H-1-benzopyran-3-yl)-3-oxo-2-[(pyridin-2-yl)methyl]-1,2,3,4-tetrahydroisoquinoline-1-carboxamide], 8 nM; to `CNC1c2ccccc2OCC1NC(=O)[C@@H](C)c1ccc(F)cc1` (single isomer, unassigned) [Example 22], 69 nM.
For the molecule `COC1c2ccccc2OCC1NC(=O)[C@@H](C)c1ccccc1` (single isomer, unassigned) [Example 11], the EC50 was 55 nM.
The same measure for `C[C@H](C(=O)NC1COc2ccc(F)cc2C1O)c1ccccc1` (stereo in doubt) [Example 3, (2S)—N-((cis)-6-fluoro-4-hydroxy-3,4-dihydro-2H-1-benzopyran-3-yl)-2-phenylpropanamide]: 1200 nM.
To `CO[C@@H]1c2ccccc2OC[C@H]1NC(=O)C(c1ccc(F)cc1)N1CC(OC(F)(F)F)C1` (relative stereo) [Example 24, 2-(4-fluorophenyl)-N-((trans)-4-methoxy-3,4-dihydro-2H-1-benzopyran-3-yl)-2-[3-(trifluoromethoxy)azetidin-1-yl]acetamide] belongs 20 nM; to `C[C@H](C(=O)NC1COc2ccccc2C1N(C)C)c1ccc(F)cc1` (single isomer, unassigned) [Example 37], 55 nM.
The same measure for `C[C@H](C(=O)NC1COc2ccccc2C1S(C)(=O)=O)c1ccc(Cl)cc1` (single isomer, unassigned) [Example 20]: 10 nM; for `C[C@H](C(=O)NC1COc2ccccc2C1N1CCOCC1)c1ccc(F)cc1` (single isomer, unassigned) [Example 39]: 23 nM; for `COC1c2ccccc2OCC1NC(=O)[C@@H]1c2ccccc2CC(=O)N1CCCF` (single isomer, unassigned) [Example 26]: 23 nM.
Turning to `CNC(=O)c1ccccc1C(=O)NC1c2ccccc2OCC1NC(=O)[C@@H](C)c1ccc(F)cc1` (single isomer, unassigned) [Example 34], the EC50 came out at 97 nM.
On to `COC1c2ccccc2OCC1NC(=O)[C@@H]1c2ccccc2CC(=O)N1CCCF` (single isomer, unassigned) [Example 27], for which the EC50 is 22 nM.
Regarding `C[C@H](C(=O)NC1COc2ccccc2C1N1CCCC1)c1ccc(F)cc1` (single isomer, unassigned) [Example 35], the EC50 stood at 62 nM.
`CNC(=O)c1ccccc1C(=O)NC1c2ccccc2OCC1NC(=O)[C@@H](C)c1ccc(F)cc1` (single isomer, unassigned) [Example 33]: the half-maximal effective concentration (EC50) came out at 700 nM.
The same measure for `C[C@H](C(=O)NC1COc2ccccc2C1(C)O)c1ccccc1` (single isomer, unassigned) [Example 8]: 274 nM; for `C[C@H](C(=O)NC1COc2ccccc2C1O)c1ccccc1` (single isomer, unassigned) [Example 6]: 101 nM.
Turning to `CNC1c2ccccc2OCC1NC(=O)[C@@H](C)c1ccccc1` (single isomer, unassigned) [Example 10], the EC50 was determined as 1650 nM.
Turning to `C[C@H](C(=O)NC1COc2ccccc2C1S(C)(=O)=O)c1ccc(F)cc1` (single isomer, unassigned) [Example 17], the concentration for a half-maximal effect (EC50) turned out to be 28 nM.
To `C[C@H](C(=O)NC1COc2ccccc2C1N1CCC(F)(F)C1)c1ccc(F)cc1` (single isomer, unassigned) [Example 38] belongs 30 nM.
For the molecule `C[C@H](C(=O)NC1COc2ccccc2C1S(C)(=O)=O)c1ccccc1` (single isomer, unassigned) [Example 13], the EC50 is 26 nM.
As to `C[C@H](C(=O)NC1COc2ccccc2C1S(C)(=O)=O)c1ccccc1` (single isomer, unassigned) [Example 12], the EC50 came to 7 nM.
To `C[C@H](C(=O)NC1COc2ccccc2C1N1CCC1)c1ccc(F)cc1` (single isomer, unassigned) [Example 36] belongs 33 nM.
The same measure for `CO[C@@H]1c2ccccc2OC[C@H]1NC(=O)C(c1ccc(F)cc1F)n1ccccc1=O` (relative stereo) [Example 32, 2-(2,4-difluorophenyl)-N-((trans)-4-methoxy-3,4-dihydro-2H-1-benzopyran-3-yl)-2-(2-oxo-1,2-dihydropyridin-1-yl)acetamide]: 300 nM; for `C[C@H](C(=O)NC1COc2ccccc2C1(C)O)c1ccccc1` (single isomer, unassigned) [Example 7]: 911 nM.
For the molecule `C[C@H](C(=O)NC1COc2ccccc2C1O)c1ccccc1` (single isomer, unassigned) [Example 1], the EC50 turned out to be 874 nM.
Turning to `CNC1c2ccccc2OCC1NC(=O)[C@@H](C)c1ccccc1` (stereo in doubt) [Example 14, (2S)—N-[(trans)-4-(methylamino)-3,4-dihydro-2H-1-benzopyran-3-yl]-2-phenylpropanamide], the EC50 is 65 nM.
To `CO[C@@H]1c2ccccc2OC[C@H]1NC(=O)C1c2ccccc2CC(=O)N1CC1CCOCC1` (relative stereo) [Example 28, N-((trans)-4-methoxy-3,4-dihydro-2H-1-benzopyran-3-yl)-2-[(oxan-4-yl)methyl]-3-oxo-1,2,3,4-tetrahydroisoquinoline-1-carboxamide] belongs 14 nM; to `C[C@H](C(=O)NC1COc2ccccc2C1O)c1ccccc1` (single isomer, unassigned) [Example 5], 68 nM; to `CNC1c2ccccc2OCC1NC(=O)[C@@H](C)c1ccc(F)cc1` (single isomer, unassigned) [Example 23], 110 nM.
To `COC1c2ccccc2OCC1NC(=O)[C@@H]1c2ccccc2CC(=O)N1CC1CC1` (single isomer, unassigned) [Example 18] belongs 15 nM.
To `C[C@H](C(=O)NC1COc2ccccc2C1O)c1ccccc1` (single isomer, unassigned) [Example 2] belongs 96 nM.
Consider `COC1c2ccccc2OCC1NC(=O)[C@@H]1c2ccccc2CC(=O)N1CC1CC1` (single isomer, unassigned) [Example 19], for which the EC50 was found to be 6 nM.
Take `CO[C@@H]1c2ccccc2OC[C@H]1NC(=O)C(c1ccc(F)cc1F)N1CC(OC(F)(F)F)C1` (relative stereo) [Example 25, 2-(2,4-difluorophenyl)-N-((trans)-4-methoxy-3,4-dihydro-2H-1-benzopyran-3-yl)-2-[3-(trifluoromethoxy)azetidin-1-yl]acetamide]: the 50% effective concentration (EC50) amounted to 27 nM.
The same measure for `CNC1c2ccccc2OCC1NC(=O)[C@@H](C)c1ccccc1` (single isomer, unassigned) [Example 9]: 4990 nM.
In the case of `CO[C@@H]1c2ccccc2OC[C@H]1NC(=O)C(OCC1CC1)c1ccc(F)cc1` (relative stereo) [Example 30, 2-(cyclopropylmethoxy)-2-(4-fluorophenyl)-N-((trans)-4-methoxy-3,4-dihydro-2H-1-benzopyran-3-yl)acetamide], the EC50 worked out at 11 nM.
On to `C[C@H](C(=O)NC1COc2ccccc2C1=O)c1ccccc1` (stereo partly drawn) [Example 4, (2S)—N-(4-oxo-3,4-dihydro-2H-1-benzopyran-3-yl)-2-phenylpropanamide], for which the EC50 was 860 nM.

The EC50 is the concentration giving half of the maximal effect.

For the origin of these results see US11465994B2, “MGluR7 agonist compounds for treating mGluR7-regulated diseases, disorders, or conditions” (Takeda Pharmaceutical Company Limited, priority 2016, dated 2022).
